The target in experiment [1] is T1, Human vitronectin receptor (αv β3) (Homo sapiens, UniProt P05106+P06756).
T1 construct: Human vitronectin receptor(αv β3) was purified from human placenta; from tissue; host or cells: human placenta
Kind of experiment: Vitronectin adhesion assay (solid phase receptor assay, biotinylated vitronectin competition). The settings on record: inhibition of 50% of the maximum binding of biotinylated vitronectin; 1 nM labeled ligand, 2 hours, room temperature, highest concentration of test compound 1.0×10^-4 M; read-out: AvB3 IC50. The format is binding. On the procedure: VITRONECTIN ADHESION ASSAY Human vitronectin receptor(αv β3) was purified from human placenta as previously described [Pytela et al., Methods in Enzymology, 144:475-489 (1987)). Human vitronectin was purified from fresh frozen plasma as previously described [Yatohgo et al., Cell Structure and Function, 13:281-292 (1988)]. Biotinylated human vitronectin was prepared by coupling NHS-biotin from Pierce Chemical Company (Rockford, Ill.) to purified vitronectin as previously described [Charo et al., J. Biol. Chem., 266(3):1415-1421 (1991)]. Assay buffer, OPD substrate tablets, and RIA grade BSA were obtained from Sigma (St. Louis, Mo.). Anti-biotin antibody was obtained from Calbiochem (La Jolla, Calif.). Linbro microtiter plates were obtained from Flow Labs (McLean, Va.). ADP reagent was obtained from Sigma (St. Louis, Mo.). Solid Phase Receptor Assays This assay was essentially the same as previously reported [Niiya et al., Blood, 70:475-483 (1987)]. The purified human vitronectin receptor (αv β3) was diluted from stock solutions to 1.0 μg/mL in Tris-buffered saline containing 1.0 mM Ca^++, Mg^++, and Mn^++, pH 7.4 (TBS^+++). The diluted receptor was immediately transferred to Linbro microtiter plates at 100 μL/well (100 ng receptor/well). The plates were sealed and incubated overnight at 4° C. to allow the receptor to bind to the wells. All remaining steps were at room temperature. The assay plates were emptied and 200 μL of 1% RIA grade BSA in TBS^+++ (TBS^+++ /BSA) were added to block exposed plastic surfaces. Following a 2 hour incubation, the assay plates were washed with TBS^+++ using a 96 well plate washer. Logarithmic serial dilution of the test compound and controls were made starting at a stock concentration of 2 mM and using 2 nM biotinylated vitronectin in TBS^+++ /BSA as the diluent. This premixing of labeled ligand with test (or control) ligand, and subsequent transfer of 50 μL aliquots to the assay plate was carried out with a CETUS Propette robot; the final concentration of the labeled ligand was 1 nM and the highest concentration of test compound was 1.0×10^-4 M. The competition occurred for two hours after which all wells were washed with a plate washer as before. Affinity purified horseradish peroxidase labeled goat antibiotin antibody was diluted 1:3000 in TBS^+++ /BSA and 125 μL were added to each well. After 30 minutes, the plates were washed and incubated with OPD/H2 O2 substrate in 100 mM/L Citrate buffer, pH 5.0. The plate was read with a microtiter plate reader at a wavelength of 450 nm and when the maximum-binding control wells reached an absorbance of about 1.0, the final A450 were recorded for analysis. The data were analyzed using a macro written for use with the EXCEL™ spreadsheet program. The mean, standard deviation, and %CV were determined for duplicate concentrations. The mean A450 values were normalized to the mean of four maximum-binding controls (no competitor added)(B-MAX). The normalized values were subjected to a four parameter curve fit algorithm [Rodbard et al., Int.

Experiment [2] deals with T2, Human fibrinogen receptor (αIIb β3) (Homo sapiens, UniProt P05106+P08514).
T2 construct: Human fibrinogen receptor (αIIb β3) was purified from outdated platelets; from tissue; host or cells: outdated human platelets
As to the kind of experiment: Purified IIb/IIIa receptor assay (solid phase receptor assay, biotinylated vitronectin competition). As to conditions: inhibition of 50% of the maximum binding of biotinylated vitronectin; 1 nM labeled ligand, 2 hours, room temperature, highest concentration of test compound 1.0×10^-4 M. The text has this: PURIFIED IIb/IIIa RECEPTOR ASSAY Human fibrinogen receptor (αIIb β3) was purified from outdated platelets. (Pytela, R., Pierschbacher, […]., Suzuki, S., and […] acid adhesion receptors", Methods in Enzymology 144(1987):475-489.) Human vitronectin was purified from fresh frozen plasma as described in Yatohgo, T., Izumi, M., Kashiwagi, H., and Hayashi, M., "Novel purification of vitronectin from human plasma by heparin affinity chromatography," Cell Structure and Function 13(1988):281-292. Biotinylated human vitronectin was prepared by coupling NHS-biotin from Pierce Chemical Company (Rockford, Ill.) to purified vitronectin as previously described. (Charo, […]., Phillips, D. R., Hsu, M. A., Scarborough, R. M., "Inhibition of fibrinogen binding to GP IIb/IIIa by a GP IIIa peptide", J. Biol. Chem. 266(3)(1991):1415-1421.) Assay buffer, OPD substrate tablets, and RIA grade BSA were obtained from Sigma (St. Louis, Mo.). Anti-biotin antibody was obtained from Calbiochem (La Jolla, Calif.). Linbro microtiter plates were obtained from Flow Labs (McLean, Va.). ADP reagent was obtained from Sigma (St. Louis, Mo.). Solid Phase Receptor Assays This assay is essentially the same reported in […]., Bader, R., Byers-Ward, […]., Plow, E. F. and Ruggeri, Z. M., "Increased surface expression of the membrane glycoprotein IIb/IIIa complex induced by platelet activation: Relationships to the binding of fibrinogen and platelet aggregation", Blood 70(1987):475-483. The purified human fibrinogen receptor (αIIb β3) was diluted from stock solutions to 1.0 μg/mL in Tris-buffered saline containing 1.0 mM Ca^++, Mg^++, and Mn^++, pH 7.4 (TBS^+++). The diluted receptor was immediately transferred to Linbro microtiter plates at 100 μL/well (100 ng receptor/well). The plates were sealed and incubated overnight at 4° C. to allow the receptor to bind to the wells. All remaining steps were at room temperature. The assay plates were emptied and 200 μL of 1% RIA grade BSA in TBS^+++ (TBS^+++ /BSA) were added to block exposed plastic surfaces. Following a 2 hour incubation, the assay plates were washed with TBS^+++ using a 96 well plate washer. Logarithmic serial dilution of the test compound and controls were made starting at a stock concentration of 2 mM and using 2 nM biotinylated vitronectin in TBS^+++ /BSA as the diluent. This premixing of labeled ligand with test (or control) ligand, and subsequent transfer of 50 μL aliquots to the assay plate was carried out with a CETUS Propette robot; the final concentration of the labeled ligand was 1 nM and the highest concentration of test compound was 1.0×10^-4 M. The competition occurred for two hours after which all wells were washed with a plate washer as before. Affinity purified horseradish peroxidase labeled goat antibiotin antibody was diluted 1:3000 in TBS^+++ /BSA and 125 μL were added to each well. After 30 minutes, the plates were washed and incubated with […]/H2 O2 substrate in 100 mM/L citrate buffer, pH 5.0. The plate was read with a microtiter plate reader at a wavelength of 450 nm and when the maximum-binding control wells reached an absorbance of about 1.0, the final A450 were recorded for analysis. The data were analyzed using a macro written for use with the EXCELTM spreadsheet program. The mean, standard deviation, and %CV were determined for duplicate concentrations. The mean A450 values were normalized to the mean of four maximum-binding controls (no competitor added)(B-MAX). The normalized values were subjected to a four parameter curve fit algorithm, [Robard et al., Int.

Structures can show the parent of a compound that is named as a salt.

What is called IC50 is the concentration at which inhibition is half-maximal. Take `N=C(N)Nc1cccc(C(=O)NCc2cccc(C(CC(=O)O)c3ccccc3)c2)c1` (stereo not drawn) [Example 38, 3-[[[[3-[(aminoiminomethyl)amino]phenyl]carbonyl]amino]methyl]-β-phenylbenzenepropanoic acid, trifluoroacetate salt]: the results for the half-maximal inhibitory concentration (IC50) in experiment [1] and in experiment [2] were 8.95 nM and 364 nM, respectively.

With `CC(CC(=O)OC(C)(C)C)c1cccc(CNC(=O)c2cccc(NC(=N)N)c2)c1` (stereo not drawn) [Example 39, 1,1-dimethylethyl 3-[[[[3-[(aminoiminomethyl)amino]phenyl]carbonyl]amino]methyl]-β-methyl)benzenepropanoate, trifluoroacetate salt], the IC50 in experiment [1] was 8560 nM; in experiment [2], 62400 nM.

For the compound `CC(CC(=O)O)c1cccc(CNC(=O)c2cccc(NC(=N)N)c2)c1` (stereo not drawn) [Example 40, 3-[[[[3-[(aminoiminomethyl)amino]phenyl]carbonyl]amino]methyl]-β-methylbenzenepropanoic acid, trifluoroacetate salt], the IC50 in experiment [1] came out at 11.6 nM; in experiment [2], 2260 nM.

On to `CCOC(=O)CC(CC)c1cccc(CNC(=O)c2cccc(NC(=N)N)c2)c1` (stereo not drawn) [Example 41, ethyl 3-[[[[3-[(aminoiminomethyl)amino]phenyl]carbonyl]amino]methyl)-β-ethylbenzenepropanoate, trifluoroacetate salt], for which the values for the IC50 in experiment [1] and in experiment [2] were 11300 nM and > 100000 nM, respectively.

Turning to `CCC(CC(=O)O)c1cccc(CNC(=O)c2cccc(NC(=N)N)c2)c1` (stereo not drawn) [Example 42, 3-([[[3-[(aminoiminomethyl)amino]phenyl]carbonyl]amino]methyl]-β-ethylbenzenepropanoic acid, trifluoroacetate salt], the figures for the IC50 in experiment [1] and in experiment [2] were 11.7 nM and 472 nM, respectively.

As to `CC(C)C(CC(=O)O)c1cccc(CNC(=O)c2cccc(NC(=N)N)c2)c1` (stereo not drawn) [Example 43, 3-[[[[3-[(aminoiminomethyl)amino]phenyl]carbonyl]amino]methyl]-β-(1-methylethyl) benzenepropanoic acid, trifluoroacetate salt], the IC50 in experiment [1] stood at 7.18 nM; in experiment [2], 798 nM.

Take `N=C(N)Nc1cccc(C(=O)NCCc2cccc(CC(=O)O)c2)c1` [Example 44, 3-[2-[[[3-[(aminoiminomethyl)amino]phenyl]carbonyl]amino]ethyl]benzeneacetic acid, monohydrate trifluoroacetate salt]: the IC50 in experiment [1] is 3210 nM; in experiment [2], 94 nM.

Turning to `CC(=O)NC(Cc1cccc(CNC(=O)c2cccc(NC(=N)N)c2)c1)C(=O)O` (centres unmarked) [Example 45, N-acetyl-3-[[[[3-[(aminoiminomethyl)amino]phenyl]carbonyl]amino]methyl)phenylalanine, bis(trifluoroacetate) salt], the IC50 in experiment [1] was found to be 72.3 nM; in experiment [2] it was 1370 nM.

As to `N=C(N)Nc1cccc(CC(=O)Nc2cccc(CCC(=O)O)c2)c1` [Example 46, 3-[[[3-[(aminoiminomethyl)amino]phenyl]acetyl]amino]benzenepropanoic acid, trifluoroacetate salt], the concentration for half-maximal inhibition (IC50) is 2440 nM in experiment [1] and 2280 nM in experiment [2].

In the case of `COC(=O)Cc1cccc(CNC(=O)c2cccc(NC(=N)N)c2)c1` [Example 47, methyl 3-[[[[3-[(aminoiminomethyl)amino]phenyl]carbonyl]amino]methyl]benzeneacetate, trifluoroacetate salt], the IC50 in experiment [1] is 36500 nM; in experiment [2] it was > 100000 nM.

Turning to `N=C(N)Nc1cccc(C(=O)NCc2cccc(CC(=O)O)c2)c1` [Example 49, 3-[[[[3-[(aminoiminomethyl)amino]phenyl]carbonyl]amino]methyl]benzeneacetic acid, trifluoroacetate salt], the figures for the IC50 in experiment [1] and in experiment [2] were 1680 nM and 12700 nM, respectively.

On to `N=C(N)Nc1cccc(C(=O)Nc2cccc(CC(=O)O)c2)c1` [Example 50, 3-[[[3-[(aminoiminomethyl)amino]phenyl]carbonyl]amino]benzeneacetic acid, trifluoroacetate salt], for which the IC50 is > 100000 nM in experiment [1] and 55500 nM in experiment [2].

In the case of `N=C(N)Nc1cccc(NC(=O)Nc2cccc(CCC(=O)O)c2)c1` [Example 51, 3-[[[[3-[(aminoiminomethyl)amino]phenyl]amino]carbonyl]amino]benzenepropanoic acid, trifluoroacetate salt], the IC50 in experiment [1] turned out to be 3090 nM; in experiment [2], 10700 nM.

As to `N=C(N)Nc1cccc(NC(=O)Nc2cccc(OCC(=O)O)c2)c1` [Example 52, [3-[[[[3-[(aminoiminomethyl)amino]phenyl]amino]carbonyl]amino]phenoxy]acetic acid, trifluoroacetate salt], the values for the IC50 in experiment [1] and in experiment [2] were 16600 nM and 39700 nM, respectively.

On to `N=C(N)Nc1cccc(NC(=O)NCc2cccc(CCC(=O)O)c2)c1` [Example 53, 3-[[[[[3-[(aminoiminomethyl)amino]phenyl]amino]carbonyl]amino]methyl]benzenepropanoic acid, trifluoroacetate salt], for which the results for the IC50 in experiment [1] and in experiment [2] were 1670 nM and 2640 nM, respectively.

For the compound `N=C(N)Nc1cccc(C(=O)NCc2cccc(C(CC(=O)O)c3cc(Cl)cc(Cl)c3)c2)c1` (centres unmarked) [Example 54], the IC50 in experiment [1] came to 19.8 nM; in experiment [2], 145 nM.

These data come from patent US5773646A, “Meta-substituted phenylene derivatives” (G. D. Searle & Co., priority 1997, dated 1998).
